The values that follow come from ChEMBL document CHEMBL1201862, “PubChem BioAssay data set” (2004).

The target of experiment [1] is T1, Low molecular weight phosphotyrosine protein phosphatase (Homo sapiens, UniProt P24666).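 Also: Dose-response confirmation assay measuring inhibition of LMPTP enzyme activity by fluorescence intensity read-out.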
T1 sequence (P24666 whole entry): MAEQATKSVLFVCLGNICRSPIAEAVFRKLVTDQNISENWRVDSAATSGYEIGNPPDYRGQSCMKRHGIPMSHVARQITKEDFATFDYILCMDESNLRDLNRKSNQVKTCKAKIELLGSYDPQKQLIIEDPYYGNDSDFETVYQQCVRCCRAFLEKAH
In kind it is functional. The settings on record: read-out: IC50_Mean.

Experiment [2] has as its target Glutathione-S-transferase (Schistosoma japonicum, UniProt Q26513). As to the kind of experiment: GST-antibody interaction or FRET quenching – biochemical, TR-FRET, artefact control for Vif-APOBEC3G degradation inhibitor project, dose response (AID 1117362). The format is functional.
Experiment [3] addresses T2, Polyadenylate-binding protein 1 (Homo sapiens, UniProt P11940). Put plainly: MLLE domain peptide-binding blockers, IC50 – biochemical, fluorescence polarization, FITC-PAM2 peptide, dose response (AID 602259). The format is functional. The conditions noted are these: read-out: IC50_Mean.
In experiment [4] the target is T2, Polyadenylate-binding protein 1. As to the kind of experiment: MLLE binding blockers, Cy5 peptide tracer – biochemical, fluorescence polarization, Cy5-PAM2 peptide, secondary, miRNA deadenylation inhibitor project, dose response (AID 602260). The format is functional. The conditions noted are these: read-out: IC50_Mean.
A short description of experiment [5]: inhibition of ADAM10 peptide cleavage – biochemical, FRET peptide substrate, recombinant human ADAM10, selectivity assay for ADAM17 exosite inhibitor project, dose response (AID 743259).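 Also: ADAM10 enzyme cleaving a FRET peptide substrate.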
Experiment [6] addresses Disintegrin and metalloproteinase domain-containing protein 17 (Homo sapiens, UniProt P78536). Put plainly: exosite inhibitors of ADAM17, dose response, biochemical (AID 743260).
The next experiment addresses Ephrin type-A receptor 4 (Mus musculus, UniProt Q03137). As to the kind of experiment: EphA4 ligand-binding antagonists – biochemical, colorimetric, mouse EphA4, primary screen (AID 689). In kind it is functional.
Experiment [7] addresses T3, Oxysterols receptor LXR-beta (Homo sapiens, UniProt P55055).
T3 sequence (P55055 whole entry): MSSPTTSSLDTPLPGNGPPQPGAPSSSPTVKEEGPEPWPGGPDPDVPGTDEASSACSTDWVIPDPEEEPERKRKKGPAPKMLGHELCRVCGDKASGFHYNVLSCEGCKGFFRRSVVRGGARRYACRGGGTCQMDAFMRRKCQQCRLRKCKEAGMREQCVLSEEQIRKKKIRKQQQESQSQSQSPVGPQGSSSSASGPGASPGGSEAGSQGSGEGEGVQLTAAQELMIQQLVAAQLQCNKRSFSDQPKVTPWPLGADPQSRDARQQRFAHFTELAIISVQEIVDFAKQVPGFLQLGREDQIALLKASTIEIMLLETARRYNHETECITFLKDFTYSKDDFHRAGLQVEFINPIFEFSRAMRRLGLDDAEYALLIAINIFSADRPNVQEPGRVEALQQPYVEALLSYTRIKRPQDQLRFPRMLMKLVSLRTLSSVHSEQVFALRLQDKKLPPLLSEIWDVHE
Put plainly: LXR agonists, Gal4 luciferase reporter, dose response, counter-screen for ssDAF-12 agonist project, cell-based, luminescence, HEK293, S. stercoralis campaign (AID 720737). The format is functional. The settings on record: read-out: IC50 (the source's name).

Experiment [8] in a line: Luminescence-based cell-based high throughput dose response assay to identify activators of the DAF-12 from the parasite S. stercoralis (ssDAF-12). In kind it is functional.
Experiment [9] addresses Glyceraldehyde-3-phosphate dehydrogenase (Homo sapiens, UniProt P04406).
The target in experiment [10] is T4, Bcl-2-related protein A1 (Mus musculus, UniProt Q07440).
T4 sequence (Q07440 whole entry): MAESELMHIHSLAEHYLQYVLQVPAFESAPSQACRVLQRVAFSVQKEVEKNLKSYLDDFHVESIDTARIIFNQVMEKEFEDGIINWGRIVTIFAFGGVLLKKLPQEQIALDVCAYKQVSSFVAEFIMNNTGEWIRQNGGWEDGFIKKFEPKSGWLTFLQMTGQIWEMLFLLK
As to the kind of experiment: Bfl-1 binding inhibitors, SAR follow-up, biochemical, fluorescence polarization (AID 1070).

The target of experiment [11] is T4, Bcl-2-related protein A1. Put plainly: small-molecule antagonists of Bfl-1/BH3 interaction – biochemical, TR-FRET, mouse Bfl-1, confirmation (AID 621).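 Also: TR-FRET binding of GST-Bfl-1 to FITC-labelled Bid peptide via terbium antibody.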
A short description of experiment [12]: M. tuberculosis H37Rv growth inhibitors, H37Rv strain (AID 1626). In kind it is functional.
Experiment [13] can be described thus: PAX8-dependent cell viability loss – plate reader, dry powder, dose response (AID 743049). In kind it is functional, cell-based.
A short description of experiment [14]: PAX5 cellular inhibition readout – cell-based, plate reader, dry powder samples, selectivity assay for PAX8 inhibitor project, dose response (AID 743047).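 Also: HEK293 cells carrying a Pax5 driven CD19 promoter luciferase reporter; potency of inhibitors that lower reporter luminescence.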 In kind it is functional.
Experiment [15] is described as follows: inhibitors acting on PAX2 in cells – cell-based, plate reader, dry powder samples, selectivity assay for PAX8 inhibitor project, dose response (AID 743048).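 Also: HEK293 cells carrying a WT1 promoter luciferase reporter driven by expressed Pax2; potency is for inhibition of Pax2 driven reporter signal.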 The format is functional.
Experiment [16] is described as follows: IGROV1 cell killing – plate reader, dry powder samples, PAX8 inhibitor project, dose response (AID 743043). The format is functional, cell-based. The settings on record: IGROV-1.
Experiment [17] can be described thus: OV-90 cell viability loss – plate reader, dry powder, SA8, PAX8 inhibitor project, dose response (AID 743149). The format is functional, cell-based.
The nature of experiment [18]: COV434 cell viability loss – plate reader, dry powder, SA7, cytotoxicity control for PAX8 inhibitor project, dose response (AID 743145). In kind it is functional, cell-based.
A short description of experiment [19]: OVCAR-3 cell viability loss – plate reader, dry powder samples, PAX8 inhibitor project, dose response (AID 743044). In kind it is functional, cell-based.
Another experiment deals with Paired box protein Pax-8 (Homo sapiens, UniProt Q06710). Put plainly: PAX8 transcriptional activity inhibition in RMG-I – RMG-I cells, luciferase, cherry-pick, dose response (AID 687027).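 Also: luciferase reporter driven by Pax8 target thyroperoxidase promoter measured by SteadyGlo luminescence.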 The format is functional, cell-based.
Sequence of Paired box protein Pax-8 (Q06710 whole entry): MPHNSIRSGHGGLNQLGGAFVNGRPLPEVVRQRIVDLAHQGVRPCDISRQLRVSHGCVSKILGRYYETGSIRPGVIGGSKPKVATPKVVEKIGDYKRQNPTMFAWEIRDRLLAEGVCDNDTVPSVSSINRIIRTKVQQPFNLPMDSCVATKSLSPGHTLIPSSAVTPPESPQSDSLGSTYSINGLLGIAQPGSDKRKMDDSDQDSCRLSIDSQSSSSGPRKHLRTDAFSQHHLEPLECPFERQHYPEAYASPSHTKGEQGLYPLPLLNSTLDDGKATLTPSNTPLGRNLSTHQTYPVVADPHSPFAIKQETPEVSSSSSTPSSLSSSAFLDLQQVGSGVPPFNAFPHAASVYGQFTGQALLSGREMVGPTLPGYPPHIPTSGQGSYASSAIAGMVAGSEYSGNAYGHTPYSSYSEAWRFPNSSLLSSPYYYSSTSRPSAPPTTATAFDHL
Experiment [20] in a line: cytotoxicity in MITF-independent A375 cells – cell-based, CellTiter-Glo luminescence, dry powder, set 4, counter-screen for MITF inhibitor project, dose response (AID 624364).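 Also: A375 melanoma cells are MITF independent so this is a counter screen.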 In kind it is functional. The conditions noted are these: A-375.
Experiment [21] is described as follows: viability loss in MITF-independent A375 cells – cell-based, CellTiter-Glo luminescence, dry powder, set 2, counter-screen for MITF inhibitor project, dose response (AID 624489).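 Also: actives are compounds lowering A375 viability meaning general cytotoxicity.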 The format is functional. The conditions noted are these: A-375.
Another experiment concerns HEK293. Put plainly: viability loss in HEK293T cells – cell-based, ATP luminescence, cherry-pick samples, cytotoxicity control, dose response (AID 687005).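 Also: cells exposed to compound for 48 hours.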 The format is functional. The conditions noted are these: Homo sapiens.
The nature of experiment [22]: HEK293 Cytotoxicity Assay Measured in Cell-Based System Using Plate Reader - 7071-01_Inhibitor_Dose_CherryPick_Activity_Set2. The format is functional.
Experiment [23] is described as follows: general cell-killing toxicity readout – plate reader, dry powder samples, cytotoxicity control for PAX8 inhibitor project, dose response (AID 743021). In kind it is functional, cell-based.
Experiment [24] can be described thus: P. falciparum Dd2 growth inhibitors, dose response, SYBR Green, cherry-picked samples (AID 1159567). In kind it is functional, cell-based.
The nature of experiment [25]: toxicity to human hepatoma HepG2 cells – cell-based, cherry-picked samples, cytotoxicity control, dose response (AID 1159577). In kind it is functional.
Experiment [26] can be described thus: OVCAR8 cell viability loss – plate reader, dry powder samples, PAX8 project, dose response (AID 743197). The format is functional, cell-based. The settings on record: OVCAR-8.

The source made the active and inactive calls. Where only a bound is given, the exact number is not on record here.

T2 sequence (P11940 whole entry, the tested form may be a part): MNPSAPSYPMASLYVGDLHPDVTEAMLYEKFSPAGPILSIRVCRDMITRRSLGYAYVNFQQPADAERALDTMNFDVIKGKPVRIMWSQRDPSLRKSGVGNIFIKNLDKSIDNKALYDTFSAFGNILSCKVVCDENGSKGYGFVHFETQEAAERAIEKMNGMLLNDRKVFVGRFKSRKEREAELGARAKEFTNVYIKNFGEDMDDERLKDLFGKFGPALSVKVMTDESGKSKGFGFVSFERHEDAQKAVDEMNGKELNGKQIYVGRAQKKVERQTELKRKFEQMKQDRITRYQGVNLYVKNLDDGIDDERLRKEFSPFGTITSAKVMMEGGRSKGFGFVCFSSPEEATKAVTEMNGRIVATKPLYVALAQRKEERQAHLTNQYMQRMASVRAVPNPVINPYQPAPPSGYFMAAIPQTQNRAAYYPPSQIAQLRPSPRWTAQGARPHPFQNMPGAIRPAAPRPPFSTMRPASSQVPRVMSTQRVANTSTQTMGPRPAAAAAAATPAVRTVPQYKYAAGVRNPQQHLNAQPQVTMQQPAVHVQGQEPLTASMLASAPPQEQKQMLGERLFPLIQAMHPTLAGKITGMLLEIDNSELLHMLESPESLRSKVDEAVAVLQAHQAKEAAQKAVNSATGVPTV
Sequence of Ephrin type-A receptor 4 (Q03137 whole entry): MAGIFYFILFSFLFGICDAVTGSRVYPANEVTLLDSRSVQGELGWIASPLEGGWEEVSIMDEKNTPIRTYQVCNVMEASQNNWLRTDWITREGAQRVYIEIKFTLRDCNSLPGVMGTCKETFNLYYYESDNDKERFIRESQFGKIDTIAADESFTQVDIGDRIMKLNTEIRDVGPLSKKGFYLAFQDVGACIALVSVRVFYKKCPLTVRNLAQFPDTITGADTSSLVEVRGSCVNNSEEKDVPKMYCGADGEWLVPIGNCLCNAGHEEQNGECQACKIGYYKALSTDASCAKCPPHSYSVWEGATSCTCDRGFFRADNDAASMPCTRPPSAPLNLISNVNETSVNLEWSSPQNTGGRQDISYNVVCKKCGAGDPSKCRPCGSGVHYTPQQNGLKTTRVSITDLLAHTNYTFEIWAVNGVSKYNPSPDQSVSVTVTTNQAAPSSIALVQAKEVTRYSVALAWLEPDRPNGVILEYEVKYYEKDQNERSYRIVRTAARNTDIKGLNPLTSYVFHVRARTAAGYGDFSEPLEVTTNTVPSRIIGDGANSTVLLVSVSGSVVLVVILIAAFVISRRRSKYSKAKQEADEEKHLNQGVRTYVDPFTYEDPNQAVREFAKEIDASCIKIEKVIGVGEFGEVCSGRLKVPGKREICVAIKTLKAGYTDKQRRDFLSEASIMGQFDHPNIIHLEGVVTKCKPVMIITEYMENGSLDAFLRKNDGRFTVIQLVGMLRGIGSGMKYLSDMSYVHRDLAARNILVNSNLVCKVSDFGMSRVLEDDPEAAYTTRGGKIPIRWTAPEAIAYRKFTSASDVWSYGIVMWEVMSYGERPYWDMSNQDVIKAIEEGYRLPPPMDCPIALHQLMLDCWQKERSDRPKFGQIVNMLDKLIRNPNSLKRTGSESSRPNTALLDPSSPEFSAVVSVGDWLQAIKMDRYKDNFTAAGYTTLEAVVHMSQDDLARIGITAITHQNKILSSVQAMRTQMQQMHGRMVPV
Sequence of Disintegrin and metalloproteinase domain-containing protein 17 (P78536 whole entry, the tested form may be a part): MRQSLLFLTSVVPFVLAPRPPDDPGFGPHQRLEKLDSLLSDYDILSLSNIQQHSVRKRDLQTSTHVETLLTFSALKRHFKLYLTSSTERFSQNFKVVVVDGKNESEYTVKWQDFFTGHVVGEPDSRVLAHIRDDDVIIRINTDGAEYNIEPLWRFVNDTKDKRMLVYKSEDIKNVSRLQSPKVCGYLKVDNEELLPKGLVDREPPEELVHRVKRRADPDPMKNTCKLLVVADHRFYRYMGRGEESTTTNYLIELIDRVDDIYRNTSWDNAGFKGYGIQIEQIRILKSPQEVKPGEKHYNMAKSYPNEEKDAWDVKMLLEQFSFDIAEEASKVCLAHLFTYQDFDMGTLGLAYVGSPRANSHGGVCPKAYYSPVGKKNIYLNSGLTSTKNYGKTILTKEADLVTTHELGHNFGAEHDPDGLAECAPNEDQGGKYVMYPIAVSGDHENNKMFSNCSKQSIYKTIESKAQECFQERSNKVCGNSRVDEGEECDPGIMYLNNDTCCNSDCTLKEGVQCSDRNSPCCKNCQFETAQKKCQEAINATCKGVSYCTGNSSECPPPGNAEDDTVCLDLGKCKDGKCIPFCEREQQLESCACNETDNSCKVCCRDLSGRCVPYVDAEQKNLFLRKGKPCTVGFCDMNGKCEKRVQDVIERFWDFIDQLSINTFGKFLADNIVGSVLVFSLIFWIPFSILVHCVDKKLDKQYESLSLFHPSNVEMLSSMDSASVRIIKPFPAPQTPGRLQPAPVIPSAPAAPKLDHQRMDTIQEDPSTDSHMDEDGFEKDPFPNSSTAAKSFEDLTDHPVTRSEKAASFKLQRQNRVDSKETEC
Sequence of Glyceraldehyde-3-phosphate dehydrogenase (P04406 whole entry): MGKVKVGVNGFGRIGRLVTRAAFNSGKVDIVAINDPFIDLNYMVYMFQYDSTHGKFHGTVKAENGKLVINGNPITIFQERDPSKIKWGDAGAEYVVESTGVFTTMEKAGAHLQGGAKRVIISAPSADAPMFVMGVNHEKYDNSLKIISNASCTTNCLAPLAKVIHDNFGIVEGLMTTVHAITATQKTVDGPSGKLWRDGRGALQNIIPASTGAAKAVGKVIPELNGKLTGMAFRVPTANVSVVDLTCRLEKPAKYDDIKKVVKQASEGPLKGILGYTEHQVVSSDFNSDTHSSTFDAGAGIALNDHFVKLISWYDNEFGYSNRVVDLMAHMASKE
Sequence of Glutathione-S-transferase (Q26513 whole entry, the tested form may be a part): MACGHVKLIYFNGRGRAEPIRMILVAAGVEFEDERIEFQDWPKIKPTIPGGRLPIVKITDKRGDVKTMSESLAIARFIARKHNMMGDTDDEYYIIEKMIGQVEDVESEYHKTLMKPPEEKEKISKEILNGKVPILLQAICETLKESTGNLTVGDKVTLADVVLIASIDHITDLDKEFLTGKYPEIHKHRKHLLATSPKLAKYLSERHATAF

Turning to `CN=c1cccccc1S`, the IC50 in [1] was 49 µM (inactive); in experiment [2], > 100 µM (active); in [3] it was > 66 µM (inactive); in [4], > 66 µM (inactive).
`O=C(NCC1COc2ccccc2O1)c1cccc(S(=O)(=O)N2CCN(c3ccccc3)CC2)c1` (centres undefined): the IC50 in experiment [5] and in experiment [6] was > 69.5 µM (inactive) each time.
`Cc1ccsc1/C=C/C1=Cc2c(sc(NC(=O)CSc3nnc(N)[nH]3)c2C#N)C(C)(C)C1`: the IC50 on Ephrin type-A receptor 4 was 3.15 µM (active).
On the same count and under the same terms, to `CCCN1C(=O)/C(=C/C=C2\N(CC)c3ccccc3C2(C)C)SC1=S` belongs 5.08 µM (active).
In the case of `O=C(COn1nnc2ccc(C(F)(F)F)cc21)Nc1c(Cl)cccc1Cl`, the EC50 in [7] was > 67.6 µM (inactive). Also, in [8], the IC50 is > 67.6 µM (inactive).
Take `CCN1CCN(C2=C(Cl)C(=O)N(c3ccc(Cl)nc3)C2=O)CC1`: the figures for the IC50 (in [9]; at Bcl-2-related protein A1 [10]; on Bcl-2-related protein A1 [11]) were > 100 µM (not active), 15 µM (active) and 20.8 µM (active), respectively.
For `CCCC(=O)C1=C(NCCc2c(C)[nH]c3ccc(C)cc23)CCCC1=O`, in [12], the IC50 is > 100 µM (active).
For `O=C1c2ccccc2C(=O)N1CC(O)CN1CCOCC1` (centres undefined), in experiment [7], the EC50 is > 67.5 µM (inactive). Also, the IC50 in experiment [8] is > 67.5 µM (inactive).
On to `CCc1ccc(/C=C2\SC(=S)N(CCCC(=O)N(CCO)c3ccccc3)C2=O)cc1`, for which the concentration at half-maximal activity (AC50) is 15.1 µM (active) in experiment [13]; 33 µM (active) in experiment [14]; 31.9 µM (active) in experiment [15]; 9.33 µM (active) in experiment [16]; 35.1 µM (active) in experiment [17]; 8.05 µM (active) in [18]. For the same molecule, the AC50 in [19] is 29.1 µM (active); at Paired box protein Pax-8, 7.65 µM (active).
On to `NC1=C(c2ccccc2)C(=O)c2ccccc2C1=O`, for which the AC50 in experiment [20] and in [21] was > 70 µM (inactive) throughout.
Turning to `C[C@@H]1CCCCO[C@H](CN(C)Cc2ccccc2)[C@H](C)CN([C@@H](C)CO)C(=O)c2cc(NS(=O)(=O)c3cccs3)ccc2O1`, the concentration at half-maximal activity (AC50) (in the experiment on HEK293; in [22]) was 30.9 µM (active) in each case.
For `O=C1CN(S(=O)(=O)Cc2ccccc2)C[C@@H]2[C@@H](c3ccc(C#Cc4ccc(F)cc4)cc3)[C@@H](CO)N12`, the AC50 was 18.5 µM (active) in [23]; 17.4 µM (active) in experiment [16]; 5.57 µM (active) in experiment [24]; 9.1 µM (active) in experiment [25]; 4.64 µM (active) on Paired box protein Pax-8; 35.9 µM (active) in experiment [26].
